This passage reports TGI and GI50 results from PubChem BioAssay (NCI).

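Growth conditions: 96-well plates. Treatment: test compound, 48 hours, 5 concentrations. Analysis: linear interpolation between bracketing concentrations; unreached endpoints set to highest concentration. GI50 marks 50% less growth. TGI is the concentration that stops growth completely.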

Among the test systems are ACHN renal; UACC-257 melanoma; SK-MEL-2 melanoma; DU-145 prostate; SK-MEL-5 melanoma.
What all share (assay): NCI anticancer screen, dose series, 48 h

In the case of `Cc1ccc(S(=O)(=O)OI(O)CC(F)(F)F)cc1`, the TGI with ACHN renal, in the experiment with UACC-257 melanoma, in the experiment on SK-MEL-2 melanoma, with DU-145 prostate and in the experiment with SK-MEL-5 melanoma was over 100 µM throughout.
`COc1cc(/C=C2\CC(C)C/C(=C\c3ccc(O)c(OC)c3)C2=O)ccc1O` (stereo not drawn): the TGI worked out at 10.2 µM with ACHN renal; 9.08 µM in the experiment on UACC-257 melanoma; 17.8 µM in the experiment with SK-MEL-2 melanoma; 12.7 µM in the experiment with DU-145 prostate; 4.52 µM in the experiment with SK-MEL-5 melanoma.
On to `CC(C)(C)Cc1cc(O)ccc1O`, for which the TGI in the experiment on ACHN renal, in the experiment with UACC-257 melanoma and with DU-145 prostate was over 100 µM throughout.
In the case of `CNC(=O)OCc1nc(N=[N+]=[N-])n(C)c1COC(=O)NC`, the TGI with ACHN renal was over 100 µM; with UACC-257 melanoma, over 100 µM; with SK-MEL-2 melanoma it was 80.6 µM; in the experiment with DU-145 prostate it was over 100 µM; with SK-MEL-5 melanoma it was over 10 µM.
As for `O=c1cc(-c2ccc3ccccc3c2)[nH]c2ncccc12`, the TGI with ACHN renal was over 100 µM; in the experiment on UACC-257 melanoma, over 100 µM; in the experiment on SK-MEL-2 melanoma it was over 100 µM; in the experiment with DU-145 prostate it was over 100 µM; in the experiment with SK-MEL-5 melanoma, 16.5 µM. Besides, the GI50 with SK-MEL-5 melanoma is 3.46 µM.
Take `CC(CC(C)[C@H]1CCC2[C@H]3C(CC(=O)[C@@]21C)[C@@]1(C)CCC(O)C[C@H]1C[C@@H]3O)C(=O)O` (stereo partly drawn): the TGI with ACHN renal, in the experiment with UACC-257 melanoma, in the experiment on SK-MEL-2 melanoma and in the experiment on DU-145 prostate was over 100 µM throughout.
On to `Nc1ncnc2c1ncn2[C@@H]1C[C@H](NO)[C@@H](O)[C@H]1O`, for which the TGI in the experiment on ACHN renal, with UACC-257 melanoma, with SK-MEL-2 melanoma, with DU-145 prostate and in the experiment on SK-MEL-5 melanoma was over 100 µM throughout.
As for `CC(C(=O)O)C1Nc2ccccc2NC1=O` (stereo not drawn), the TGI in the experiment on ACHN renal, in the experiment with UACC-257 melanoma, in the experiment with SK-MEL-2 melanoma, in the experiment with DU-145 prostate and with SK-MEL-5 melanoma was over 100 µM throughout.
For `COc1cc(/C=C2\C(=O)N(c3ccc(NC(C)=O)cc3)C(c3ccccc3)S2(=O)=O)cc(OC)c1OC` (stereo not drawn), the TGI in the experiment on ACHN renal, in the experiment with UACC-257 melanoma, with SK-MEL-2 melanoma, in the experiment with DU-145 prostate and in the experiment with SK-MEL-5 melanoma was over 100 µM throughout.
In the case of `CCNC1=C(NC(=O)c2ccc(OC)cc2)C(=O)c2ccccc2C1=O`, the TGI in the experiment with ACHN renal is over 100 µM; in the experiment on UACC-257 melanoma it was 48 µM; with DU-145 prostate, over 100 µM; in the experiment on SK-MEL-5 melanoma, over 100 µM.
As for `[O-]/[N+](=N/c1ncc(-c2ccccc2)cn1)c1ncc(-c2ccccc2)cn1`, the TGI in the experiment with ACHN renal, in the experiment with UACC-257 melanoma, with SK-MEL-2 melanoma, with DU-145 prostate and with SK-MEL-5 melanoma was over 100 µM in each case.
As for `O=c1[nH]c2cc3[nH]c(=O)c(=O)[nH]c3cc2[nH]c1=O`, the TGI with ACHN renal, in the experiment on UACC-257 melanoma, with SK-MEL-2 melanoma, with DU-145 prostate and in the experiment on SK-MEL-5 melanoma was over 100 µM each time.
Regarding `CN1C(=O)C(C#N)C2C[C@@]1(C)Oc1ccccc12` (stereo partly drawn), the TGI with ACHN renal, in the experiment on UACC-257 melanoma, in the experiment on SK-MEL-2 melanoma, in the experiment on DU-145 prostate and with SK-MEL-5 melanoma was over 100 µM in each case.
On to `CC1(Cc2cc3c(cc2C2(c4ccc([N+](=O)[O-])cc4)OCCO2)OCO3)OCCO1`, for which the TGI in the experiment on ACHN renal, in the experiment on UACC-257 melanoma, with SK-MEL-2 melanoma, in the experiment with DU-145 prostate and in the experiment on SK-MEL-5 melanoma was over 100 µM in each case.
As for `Cn1nc(S(N)(=O)=O)s/c1=N/S(=O)(=O)c1ccc(N)cc1`, the TGI in the experiment on ACHN renal, with SK-MEL-2 melanoma and with DU-145 prostate was over 100 µM throughout.
Consider `Brc1ccc(N=Nc2ccc3ccccc3n2)cc1`, for which the TGI is 31.2 µM with ACHN renal; over 100 µM in the experiment on UACC-257 melanoma; over 100 µM in the experiment with SK-MEL-2 melanoma; over 100 µM in the experiment on DU-145 prostate; over 100 µM with SK-MEL-5 melanoma.
As for `CC(C)=CC[C@H]1C[C@@]2(CC=C(C)C)C(=O)/C(=C(/O)c3ccccc3)C(=O)[C@](CC=C(C)C)(C2=O)C1(C)C`, the TGI in the experiment on ACHN renal was 21.8 µM; in the experiment with UACC-257 melanoma, 19.7 µM; in the experiment on SK-MEL-2 melanoma, 8.24 µM; in the experiment with SK-MEL-5 melanoma, 17.8 µM.
On to `Cc1ncc([N+](=O)[O-])n1CCNC(=O)Cn1ccnc1[N+](=O)[O-]`, for which the TGI in the experiment on ACHN renal, with UACC-257 melanoma, in the experiment with SK-MEL-2 melanoma, in the experiment on DU-145 prostate and in the experiment with SK-MEL-5 melanoma was over 100 µM each time.
As to `O=C1Nc2ccccc2/C1=N/N1C(=O)/C(=C/c2ccccc2S)N=C1c1ccccc1`, the TGI in the experiment with ACHN renal, in the experiment on UACC-257 melanoma, with SK-MEL-2 melanoma, in the experiment with DU-145 prostate and in the experiment on SK-MEL-5 melanoma was over 100 µM each time.
For `O=C(CSc1nc2ccc(I)cc2c(=O)n1Cc1ccccc1)NN1C(=O)CSC1c1ccccc1` (stereo not drawn), the TGI came to 33.1 µM in the experiment with ACHN renal; 57.5 µM with UACC-257 melanoma; 50.8 µM in the experiment with SK-MEL-2 melanoma; 78.1 µM in the experiment with DU-145 prostate; 42.6 µM in the experiment on SK-MEL-5 melanoma.
`CC(=O)c1c2c(cc3c1CC1(C3)Cc3cc4c(c(C(C)=O)c3C1)CCCC4)CCCC2`: the TGI in the experiment with ACHN renal was over 100 µM; in the experiment on UACC-257 melanoma it was over 100 µM; with SK-MEL-2 melanoma, 83.2 µM; in the experiment on SK-MEL-5 melanoma it was 35.4 µM.
As to `CC(C)(C)OC(=O)NC(Cc1ccc(OCc2ccccc2)cn1)C(=O)O` (stereo not drawn), the TGI in the experiment on ACHN renal, with UACC-257 melanoma, in the experiment with DU-145 prostate and with SK-MEL-5 melanoma was over 100 µM each time.
For the compound `Cn1c(-c2cccs2)cc(-c2ccsc2)c1-c1cccs1`, the TGI with ACHN renal, in the experiment with UACC-257 melanoma and with DU-145 prostate was over 100 µM each time.
Take `COC(=O)/C=C1/OC(c2ccc(C)cc2C)=CC1=O`: the TGI with ACHN renal amounted to 29.3 µM; with DU-145 prostate it was 30 µM; in the experiment on SK-MEL-5 melanoma, 38.2 µM.
